# According to patent US20060110385A1, “Means and methods for diagnosing and treating affective disorders” (Affectis Pharmaceuticals AG, priority 2003, published 2006):
# Assays:
# [1] = target: T1, P2X7R (Mus musculus, UniProt Q9Z1M0); assay: Calcium influx into HT-22 cells (Oregon green AM ester); format: cell-based; settings: 100 mM oATP for 1 hour before BzATP
# T1 construct: endogenous in cells; host or cells: HT-22 (immortalised mouse hippocampal cell line)
# T1 sequence (Q9Z1M0 1-595): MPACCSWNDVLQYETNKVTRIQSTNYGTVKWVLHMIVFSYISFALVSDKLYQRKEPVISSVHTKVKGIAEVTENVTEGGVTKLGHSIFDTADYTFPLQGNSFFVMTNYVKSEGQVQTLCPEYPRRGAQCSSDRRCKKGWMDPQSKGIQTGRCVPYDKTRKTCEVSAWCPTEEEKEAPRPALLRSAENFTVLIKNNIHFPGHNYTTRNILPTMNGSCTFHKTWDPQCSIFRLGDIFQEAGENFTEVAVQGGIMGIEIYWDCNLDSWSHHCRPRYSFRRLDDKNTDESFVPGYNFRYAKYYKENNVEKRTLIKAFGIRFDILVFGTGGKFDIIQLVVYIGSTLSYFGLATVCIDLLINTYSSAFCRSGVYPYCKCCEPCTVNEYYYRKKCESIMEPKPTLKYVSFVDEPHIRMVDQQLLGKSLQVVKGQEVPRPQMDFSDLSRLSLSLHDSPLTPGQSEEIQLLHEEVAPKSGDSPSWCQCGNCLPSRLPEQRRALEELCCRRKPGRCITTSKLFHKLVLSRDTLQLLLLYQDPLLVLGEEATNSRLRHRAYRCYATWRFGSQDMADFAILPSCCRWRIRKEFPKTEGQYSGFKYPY
# Source text: Since P2X7R is an ATP-gated ion channel which allows the entry of calcium and sodium ions into cells, a method for identifying P2X7R agonist was established by monitoring calcium influx into HT-22 cells. […] Calcium movement into the cells was visualised under a fluorescent microscope with a fluorescein filter (wavelength 492/517 nm). Oregon green AM ester is a fluorescent dye that binds to intracellular calcium.
# Activation of P2X7R by the agonist was inhibited by oATP (FIG. 18) as illustrated by the absence of green fluorescence in the cells.
# [2] = target: T1, P2X7R; assay: Entry of ethidium bromide into HT-22 cells; format: cell-based; settings: pre-incubation 60 minutes with 100 μM o-ATP before agonist and ethidium bromide
# Source text: Yet another method of measuring P2X7R activity involves the entry of ethidium bromide into P2X7R expressing cells. Activation of P2X7R by an agonist allows the entry of ethidium bromide which binds nuclear DNA and emits a fluorescence signal. Alternatively, the propidium dye YOPRO-1 can be substituted for ethidium bromide. An increase in fluorescence can be used as a measure of P2X7 receptor activation. Therefore, the assay can be used to test and quantify the effect of an agent or compound with agonist properties on P2X7R. In the present example, 10^3 HT-22 cells were seeded per well in a 96-well flat bottom microtitre plates and incubated at 37° C./5% CO2 in DMEM medium containing 10% FCS until the cells attached to the culture surface. […] The number of fluorescent cells which have integrated the ethidium bromide to the DNA can then be counted using a fluorescent microscope (Zeiss, Germany). […] Alternatively, ethidium bromide fluorescence can be measured using a Perkin-Elmer fluorescent plate reader (excitation 520 nm, emission 595 nm, slit widths: Ex 15 nm, Em 20 nm). From the readings obtained, a pIC50 figure can be calculated for each candidate agent or compound. […] The specificity of an agonist for P2X7R can be evaluated by pre-incubation of the cells for 60 minutes with 100 μM o-ATP before adding the agonist and ethidium bromide dye.
# [3] = test system: DBA/201a mice; assay: Porsolt's forced swim test after intrahippocampal P2X7R antagonists; format: in vivo, mouse; settings: 100 nM KN-62 or 10 μM oATP, 1 μl each side, dentate gyrus, 24 hours after injection
# Source text: In the present example, the P2X7R antagonists were directly injected into the dentate gyrus region of the hippocampus. Briefly, three months old male mice were bilaterally implanted with guide cannulae (23 gauge, length 8 mm) by means of a stereotactic instrument (David Kopf Instruments). The coordinates, in relation to bregma, were −1.5 mm posterior, ±1.0 mm lateral, and −0.8 mm ventral. Mice were allowed to recover for 10 to 13 days after surgery. Following this recovery period, mice were injected with 1 μl vehicle solution (0.01% DMSO, Sigma), or 100 nM KN-62 (Sigma, prepared in 0.01% DMSO), or 10 μM oATP (Sigma, prepared in PBS) in each side of the brain over a period of 60 seconds. All injections were performed using a 9 mm-31 gauge needle inserted into the guide cannulae and connected via tubing to a 10 μl Hamilton syringe.
# The behaviour of individual mice was assessed using the Porsolt's forced swim test 24 hours after injection of vehicle solution, KN-62, or oATP. A pre-exposure of 5 minutes to the test was performed 15-17 minutes after administration of vehicle, KN-62, or oATP. A description of the Porsolt's forced swim test is given in example 9. […] Observed results were verified statistically using one-way MANOVA test.
# [4] = test system: mice; assay: Open field test (locomotor activity) after oATP; format: in vivo, mouse; settings: 10 μM or 50 μM oATP, 15 minutes after injection, 30 minutes
# Protocol: Locomotor activity in mice treated with control vehicle solution, 10 μM oATP, or 50 μM oATP was assessed 15 minutes after injection by placing individual animal in a dark-grey wooden box (30×30×40 cm). Locomotor activity was monitored for a period of 30 minutes using a video camera. Overall distance travelled by the animals during the testing period was then analysed by means of VideoMot2 computer software (TSE GmbH, Bad Homburg).
compound,measurement,setting,value
"Nc1ncnc2c1ncn2[C@@H](C=O)O[C@@H](C=O)COP(=O)(O)OP(=O)(O)OP(=O)(O)O [oATP, Oxidized ATP]",activation of P2X7R by the agonist (calcium influx) after antagonist pre-treatment,[1],inhibited
same,number of fluorescent cells after antagonist pre-incubation,[2],reduction in the number of fluorescent cells
same,"active escape attempts (time, frequency, latency of struggling)",[3],no changes
same,"passive behaviour (time, frequency, latency of floating)",[3],no changes
same,locomotor activity (overall distance travelled),[4],No difference in locomotor activity
